From patent publication US10752632B2, “6-fluoro 2-methylbenzo[d]thiazol-5-yl compounds” (Eli Lilly and Company, priority 2018, dated 2020) come the findings set out here.

The IC50 is the concentration that gives 50% inhibition. Higher therefore signals weaker potency in that assay.

Sequence of full-length human O-GlcNAc-β-N-acetylglucosaminidase (OGA) (O60502 whole entry): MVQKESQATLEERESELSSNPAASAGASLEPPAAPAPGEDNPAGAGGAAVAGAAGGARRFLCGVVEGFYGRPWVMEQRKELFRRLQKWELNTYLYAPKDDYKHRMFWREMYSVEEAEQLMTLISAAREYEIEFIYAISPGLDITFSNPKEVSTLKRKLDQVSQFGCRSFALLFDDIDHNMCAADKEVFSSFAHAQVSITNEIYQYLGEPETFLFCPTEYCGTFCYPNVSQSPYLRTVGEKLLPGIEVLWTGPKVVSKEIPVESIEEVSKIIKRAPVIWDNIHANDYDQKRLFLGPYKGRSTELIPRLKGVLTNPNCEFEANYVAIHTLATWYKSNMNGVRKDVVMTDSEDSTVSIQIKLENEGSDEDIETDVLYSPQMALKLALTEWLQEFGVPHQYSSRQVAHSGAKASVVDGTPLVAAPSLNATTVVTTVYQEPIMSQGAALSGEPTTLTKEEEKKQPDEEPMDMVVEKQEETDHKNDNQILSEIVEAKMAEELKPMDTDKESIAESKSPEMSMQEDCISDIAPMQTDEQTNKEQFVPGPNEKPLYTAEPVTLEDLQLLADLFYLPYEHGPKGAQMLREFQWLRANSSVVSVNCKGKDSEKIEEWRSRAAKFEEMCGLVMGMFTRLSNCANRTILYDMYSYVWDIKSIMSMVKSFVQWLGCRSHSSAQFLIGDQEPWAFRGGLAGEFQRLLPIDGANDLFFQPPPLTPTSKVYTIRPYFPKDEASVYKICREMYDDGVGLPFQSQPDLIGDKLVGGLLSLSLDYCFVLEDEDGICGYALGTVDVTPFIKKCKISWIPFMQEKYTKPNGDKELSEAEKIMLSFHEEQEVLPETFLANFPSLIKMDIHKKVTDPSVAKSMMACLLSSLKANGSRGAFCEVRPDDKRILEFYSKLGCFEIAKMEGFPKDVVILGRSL

This assay addresses full-length human O-GlcNAc-β-N-acetylglucosaminidase (OGA) (Homo sapiens (Human), UniProt O60502). The assay is described as follows: In Vitro Human OGA Enzyme Assay. In kind it is biochemical. Particulars: His-OGA enzyme, FD-GlcNAc substrate 6.7 μM, 30 min pre-incubation, 60 min at room temperature, pH 7. The procedure: In Vitro Human OGA Enzyme Assay
The nucleotide sequence encoding full-length human O-GlcNAc-β-N-acetylglucosaminidase (NM_012215) is inserted into pFastBac1 (Invitrogen) vector with an N-terminal poly-histidine (HIS) tag. Baculovirus generation is carried out according to the Bac-to-Bac Baculovirus Expression system (Invitrogen) protocol. Sf9 cells are infected at 1.5×10^6 cells/mL using 10 mL of P1 virus per Liter of culture and incubated at 28° C. for 48 hrs. Cells are spun down, rinsed with PBS and the pellets stored at −80° C. The above OGA protein (His-OGA) is purified as follows: 4 L of cells are lysed in 200 mL of buffer containing 50 mM Tris, pH 8.0, 300 mM NaCl, 10% glycerol, 10 mM imidazole, 1 mM dithiothreitol (DTT), 0.1% Triton™ X-100, 4 tablets of protease inhibitors (complete EDTA-Free, Roche) for 45 min at 4° C. This cell lysate is then spun for 40 min at 16500 rpm at 4° C., and supernatant incubated with 6 mL of Ni-NTA resin (nickel-nitrilotriacetic acid) for 2 h at 4° C.
Resin is then packed onto column and washed with 50 mM Tris, pH 8.0, 300 mM NaCl, 10% glycerol, 10 mM imidazole, 0.1% Triton™ X-100, 1 mM DTT, followed by 50 mM Tris, pH 8.0, 150 mM NaCl, 10 mM imidazole, 10% glycerol, 1 mM DTT. The proteins are eluted with 50 mM Tris, pH 8.0, 150 mM NaCl, 300 mM imidazole, 10% glycerol, 1 mM DTT. Pooled His-OGA containing fractions are concentrated to 6 ml and loaded onto Superdex75 (16/60). The protein is eluted with 50 mM Tris, pH 8.0, 150 mM NaCl, 10% glycerol, 2 mM DTT. Fractions containing His-OGA are pooled and protein concentration measured with BCA ([…]).
The OGA enzyme catalyses the removal of O-GlcNAc from nucleocytoplasmic proteins. To measure this activity Fluorescein di-N-acetyl-β-N-acetyl-D-glucosaminide (FD-GlcNAc, Kim, Eun Ju; Kang, Dae Ook; Love, Dona C.; Hanover, John A. Carbohydrate Research (2006), 341(8), 971-982) is used as a substrate at a final concentration of 6.7 μM. This fluorogenic substrate becomes fluorescent upon cleavage by OGA, so that the enzyme activity can be measured by the increase in fluorescence detected at 535 nm (excitation at 485 nm).
The assay buffer is prepared to give a final concentration of 50 mM […], 0.01% bovine serum albumin and 0.01% Triton™ X-100 in water, at pH 7. Compounds to be tested are diluted in pure dimethyl sulfoxide (DMSO) using ten point concentration response curves. Maximal compound concentration in the reaction mixture is 30 or 1 μM. Compounds at the appropriate concentration are pre-incubated with OGA enzyme for 30 minutes before the reaction is started by the addition of substrate. The final enzyme concentration is 3.24 nM or 0.5 nM, for the 30 or 1 μM maximal compound concentration, respectively. Reactions are allowed to proceed for 60 min at room temperature. Then, without stopping the reaction, fluorescence is read. IC50 values are calculated by plotting the normalized data vs. log of the compound and fitting the data using a four parameter logistic equation.
The compounds of Examples 1 through 6 were tested essentially as described above.
Turning to `CC(=O)N1Cc2cnc(O[C@@H]3C[C@H](C)N(Cc4cc5nc(C)sc5cc4F)C3)nc2C1` [Example 1, 1-(2-(((3R,5S)-1-((6-fluoro-2-methylbenzo[d]thiazol-5-yl)methyl)-5-methylpyrrolidin-3-yl)oxy)-5,7-dihydro-6H-pyrrolo[3,4-d]pyrimidin-6-yl)ethan-1-one], the half-inhibitory concentration (IC50) was 0.465 ± 0.224 nM. The figure for `CC(=O)N1Cc2ccc(O[C@@H]3C[C@H](C)N(Cc4cc5nc(C)sc5cc4F)C3)nc2C1` [Example 2, 1-(2-(((3R,5S)-1-((6-fluoro-2-methylbenzo[d]thiazol-5-yl)methyl)-5-methylpyrrolidin-3-yl)oxy)-5,7-dihydro-6H-pyrrolo[3,4-b]pyridin-6-yl)ethan-1-one] is 0.214 ± 0.037 nM; for `CC(=O)N1Cc2cnc(O[C@@H]3C[C@H](C)N(Cc4cc5nc(C)sc5cc4F)C3)cc2C1` [Example 3, 1-[6-[(3R,5S)-1-[(6-fluoro-2-methyl-1,3-benzothiazol-5-yl)methyl]-5-methyl-pyrrolidin-3-yl]oxy-1,3-dihydropyrrolo[3,4-c]pyridin-2-yl]ethanone] it is 0.782 ± 0.087 nM; for `CC(=O)N1Cc2cc(O[C@@H]3C[C@H](C)N(Cc4cc5nc(C)sc5cc4F)C3)cnc2C1` [Example 4, 1-[3-[(3R,5S)-1-[(6-fluoro-2-methyl-1,3-benzothiazol-5-yl)methyl]-5-methyl-pyrrolidin-3-yl]oxy-5,7-dihydropyrrolo[3,4-b]pyridin-6-yl]ethanone] it is 0.592 ± 0.068 nM. The figure for `CC(=O)N1Cc2cnc(O[C@@H]3C[C@H](C)N([C@@H](C)c4cc5nc(C)sc5cc4F)C3)nc2C1` [Example 5, 1-[2-[(3R,5S)-1-[(1S)-1-(6-fluoro-2-methyl-1,3-benzothiazol-5-yl)ethyl]-5-methyl-pyrrolidin-3-yl]oxy-5,7-dihydropyrrolo[3,4-d]pyrimidin-6-yl]ethanone] is 0.495 ± 0.109 nM. The compound `CC(=O)N1Cc2ccc(O[C@@H]3C[C@H](C)N([C@@H](C)c4cc5nc(C)sc5cc4F)C3)nc2C1` [Example 6, 1-[2-[(3R,5S)-1-[(1S)-1-(6-fluoro-2-methyl-1,3-benzothiazol-5-yl)ethyl]-5-methyl-pyrrolidin-3-yl]oxy-5,7-dihydropyrrolo[3,4-b]pyridin-6-yl]ethanone] registered an IC50 of 0.385 ± 0.088 nM.
